# Data published in patent publication US8455214B2, “Methods for determining chemotherapeutic agents targeting alpha-glucan pathways and uses thereof” (priority 2009, dated 2013).
# Like-named read-outs stand apart in the source and are kept apart here.
# Key:
# [1] = test system: M. smegmatis ΔglgE mutant; experiment: Sensitivity of the M. smegmatis ΔglgE mutant toward mono- and disaccharides (growth on Middlebrook 7H10 agar); type: cell-based; settings: for growth of the mutant: glucose disaccharides
# Text: FIG. 2A-2F. Characterization of the M. smegmatis ΔglgE mutant. […] (B). Trehalose sensitivity of the ΔglgE mutant. […] (D) Trehalose sensitivity of the ΔglgB mutant. (E) M1P accumulation in the ΔglgE and ΔglgB mutants determined by TLC/autoradiography analysis of extracts from cells labeled with 14C-trehalose for the indicated time intervals. (F) Maltose accumulation in Δpep2 mutant strains determined by TLC/autoradiography analysis of cell extracts from cells labeled with 14C-trehalose for 30 min. In (B) and (D), equal dilutions of cultures were spotted onto Middlebrook 7H10 agar plates containing trehalose. Comp. refers to mutants complemented with the respective WT genes.
# The sensitivity was highly specific, since growth of the mutant was not inhibited by other glucose disaccharides like maltose or α,β-trehalose [α-D-glucopyranosyl-(1→1)-β-D-glucopyranoside].
# Mtb GlgE = Mtb GlgE (Mycobacterium tuberculosis, UniProt P9WQ17); type: biochemical; settings: for Km: read-out: Km^app
# [2] = test system: Mtb ΔtreS ΔglgE (pMV361::treS); type: cell-based, Mycobacterium tuberculosis; settings: in the presence of 5 mM VA; TLC
# trehalose synthase TreS = settings: reference 13; cited from earlier work
# Mtb WT = type: cell-based, Mycobacterium tuberculosis
# Mtb = settings: reference 14; cited from earlier work
# [3] = test system: M. smegmatis ΔglgB mutant; type: cell-based; settings: to a somewhat smaller extent than ΔglgE
# [4] = donor M1P with 1 mM maltohexaose
# [5] = acceptor maltohexaose with 1 mM M1P
# Sequence of Mtb GlgE (P9WQ17 whole entry): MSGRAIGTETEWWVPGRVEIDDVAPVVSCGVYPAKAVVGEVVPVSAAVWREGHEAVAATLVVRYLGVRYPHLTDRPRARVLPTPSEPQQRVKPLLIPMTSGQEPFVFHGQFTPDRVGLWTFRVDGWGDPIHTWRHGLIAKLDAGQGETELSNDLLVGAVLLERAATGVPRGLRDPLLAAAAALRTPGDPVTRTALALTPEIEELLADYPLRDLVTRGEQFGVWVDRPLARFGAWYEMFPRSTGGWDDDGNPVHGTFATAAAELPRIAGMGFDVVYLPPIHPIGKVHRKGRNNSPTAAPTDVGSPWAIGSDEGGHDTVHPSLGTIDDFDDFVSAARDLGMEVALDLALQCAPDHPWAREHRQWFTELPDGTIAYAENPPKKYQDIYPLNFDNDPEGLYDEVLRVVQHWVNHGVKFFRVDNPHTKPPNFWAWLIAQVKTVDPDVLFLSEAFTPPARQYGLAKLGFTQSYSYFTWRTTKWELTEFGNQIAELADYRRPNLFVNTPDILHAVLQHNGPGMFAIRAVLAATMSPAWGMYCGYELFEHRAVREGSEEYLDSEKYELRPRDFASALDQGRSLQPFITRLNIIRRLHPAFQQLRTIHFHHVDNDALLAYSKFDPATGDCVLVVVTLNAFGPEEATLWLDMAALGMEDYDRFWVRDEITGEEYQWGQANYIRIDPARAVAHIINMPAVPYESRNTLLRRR
compound,measurement,setting,value
OC[C@H]1O[C@H](O[C@H]2[C@H](O)[C@@H](O)C(O)O[C@@H]2CO)[C@H](O)[C@@H](O)[C@@H]1O (mixture of isomers) [maltose],growth of the mutant,[1],not inhibited
"O=P(O)(O)O[C@H]1O[C@H](CO)[C@@H](O[C@H]2O[C@H](CO)[C@@H](O)[C@H](O)[C@H]2O)[C@H](O)[C@H]1O [M1P, α-D-glucopyranosyl(1→4)-α-D-glucopyranosyl 1-phosphate]",kcat^app,Mtb GlgE; [4],1.26 ± 0.07 s⁻¹
same,Km,Mtb GlgE; [4],0.25 ± 0.05 mM
"OCC1=C[C@@H](N[C@H]2C[C@H](CO)[C@@H](O[C@H]3O[C@@H](CO)[C@H](O)[C@@H](O)[C@@H]3O)[C@H](O)[C@H]2O)[C@H](O)[C@@H](O)[C@@H]1O [VA, Validamycin A]",M1P accumulation,[2],only low levels
same,inhibition of TreS,trehalose synthase TreS,inhibit
same,tolerated concentration of the inhibitor,Mtb WT,10 mM
O=P(O)(O)O [inorganic phosphate],phosphate converted to M1P,Mtb GlgE,~10%
same,Km,"Mtb GlgE; inorganic phosphate, reverse reaction, estimated",6 ± 4 mM
NNC(=O)c1ccncc1 [isoniazid],1 mg/l expressed as multiple of the MIC,Mtb,20 times the MIC
"OC[C@H]1O[C@H](O[C@H]2O[C@H](CO)[C@@H](O)[C@H](O)[C@H]2O)[C@H](O)[C@@H](O)[C@@H]1O [trehalose, α-D-glucopyranosyl-(1→1)-α-D-glucopyranoside]",sensitivity of the mutant,[3],sensitive
same,concentration that completely inhibited growth,[1],0.5 mM
same,growth of the mutant,[1],bacteriostatic growth arrest
"OC[C@H]1O[C@@H](O[C@H]2O[C@H](CO)[C@@H](O)[C@H](O)[C@H]2O)[C@H](O)[C@@H](O)[C@@H]1O [α,β-trehalose, α-D-glucopyranosyl-(1→1)-β-D-glucopyranoside]",growth of the mutant,[1],not inhibited
O=P(O)(O)OC1OC(CO)C(OC2OC(CO)C(O)C(O)C2O)C(O)C1O (stereo not drawn) [β anomer of M1P],GlgE activity as donor,Mtb GlgE,no activity
maltohexaose,kcat^app,Mtb GlgE; [5],7.5 ± 0.4 s⁻¹
same,Km,Mtb GlgE; [5],13.3 ± 2.4 mM
same,kcat^app,Mtb GlgE; acceptor maltohexaose with 5 mM M1P,15.4 ± 1.1 s⁻¹
same,Km,"Mtb GlgE; acceptor maltohexaose with 5 mM M1P, pH 7.0, 37° C",35 ± 8 mM
